The text below walks through data of patent US20100168135A1, “Method of Inducing Cleavage of Amyloid Precursor Protein to Form a Novel Fragment” (priority 2008, published 2010).

One assay deals with N2a cells. As to the kind of experiment: Aβ production by N2a cultured cells, ELISA of tissue culture medium. The note with it: 24 hours treatment, vs control. The class given is cell-based, murine. As for the experimental part: N2a is a murine neuroblastoma cell line that is known to produce amyloid peptides Aβ1-40 and Aβ1-42 in amounts measurable by ELISA assays. These forms of Aβ have been correlated with the pathology in AD brain and Aβ1-42 in particular is postulated to have the ability to block α7 nicotinic receptors and to produce direct neurotoxic effects. N2a cells were treated for 24 hours with ST101 added to the tissue culture medium. Tissue culture medium was collected and analyzed by ELISA for the presence of Aβ.
FIGS. 1A and 1B are bar graphs that depict the effect of the compound ST101 on Aβ production by N2a cells. FIG. 1A is a bar graph that depicts the Aβ concentration in the cell culture medium as a function of ST101 concentration compared to control. FIG. 1B a bar graph that depicts the ratio of Aβ1-42 to Aβ1-40 as a function of ST101 concentration compared to control.
(ELISA stands for enzyme-linked immunosorbent assay.)

In a further assay the test system is 3xTg-AD mice. As to the kind of experiment: Morris water maze in 3xTg-AD mice. Type of assay: in vivo, mouse. As for the experimental part: (§1) 3xTg-AD mice of approximately one year of age were treated for 2 months with ST101. An average dose of 5 mg/kg/day was administered in drinking water (calculated dose, based on mean water consumption). Behavioral effects were tested by assessing performance on the Morris Water Maze. Biochemical effects were examined by measuring brain content of Aβ and APP by ELISA and Western Blot.
Behavioral Effects: Performance of 3xTg-AD Mice in the Morris Water Maze (MWM), adapted from Roozendaal et al., Proc. Natl. Acad. Sci. U.S.A. 100: 1328-1333 (2003).
The MWM tests both spatial memory (i.e. hippocampus dependent) and cued learning (i.e. non-hippocampal) in rodents. The maze is a circular tank filled with opaque water. Mice are placed in the water and must swim to find and escape onto a platform submerged 1.5 cm beneath the surface of the water. The time (in seconds) required to find the platform is recorded. Animals rely on visual cues in the room containing the tank in order to find the platform on successive challenges. Training was conducted daily for seven consecutive days.
Retention of training was assessed twice, 24 and 72 hours after the final training trial. Animals were subjected to a 60-second free swim in the tank with the platform removed. Parameters measured included (1) latency: time required to reach the former platform location and (2) crosses: the number of times the animal swam across the former platform location.

Assay [1] relates to APP and C-terminal fragments in the brains of 3xTg-AD mice. As to the kind of experiment: Western blot of brain extracts with antibody CT20, 2-month treatment (Examples 4 and 5). The note with it: antibody CT20, brains of 3xTg-AD mice, 5 mg/kg/day for 2 months. Type of assay: in vivo, mouse. As for the experimental part: as §1
To attempt to determine at what part in the Aβ processing/release pathway ST101 may be active, a series of Western blot analyses of brain extracts from the same mice were conducted. These Westerns blots examined intact APP as well as products of its post-translational processing and subsequent degradation.
FIG. 4 is a Western blot that depicts APP C-terminal fragments detected by antibody CT20 in the brains of ST101-treated (S) 3xTg-AD mice, relative to untreated (C) 3xTg mice-AD.
FIG. 5 is a Western blot that depicts APP and degradation fragments detected by antibody CT20 in the brains of ST101-treated (S) 3xTg-AD mice, relative to untreated (C) 3xTg-AD mice. “CT20” stands for full length APP species, and “Actin” stands for anti-beta-actin antibody as a protein loading control.
For orientation: In western blotting, separated proteins are transferred to a membrane and probed.

For assay [2], the system named is APP C-terminal fragments in the brains of 3xTg-AD mice. As to the kind of experiment: Western blot of brains with antibody CT20, 10-month treatment (Example 7). The class given is in vivo, mouse. As to conditions: antibody CT20, 3xTg-AD mice, 5 or 1 or 0.1 mg/kg/day for 10 months; in some samples. As for the experimental part: 3xTg-AD mice of approximately 3 months of age were treated for 10 months with ST101. An average dose of 5 or 1 or 0.1 mg/kg/day was administered in drinking water (calculated dose, based on mean water consumption).
FIGS. 7A-C are Western blots that depict APP C-terminal fragments detected by antibody CT20 in the brains of ST101-treated (S) 3xTg-AD mice, relative to untreated (C) 3xTg-AD mice.

For assay [3] the test system is unchanged. In words: Western blot of brains with antibody 1565-1, 2.5-month treatment (Example 8). Type of assay: in vivo, mouse. The note with it: antibody 1565-1, 3xTg-AD mice, 5 mg/kg/day for 2.5 months. The protocol:
3xTg-AD mice of approximately 12 months of age were treated for 2.5 months with ST101. An average dose of 5 mg/kg/day was administered in drinking water (calculated dose, based on mean water consumption).
FIG. 8 is a Western blot that depicts C-terminal fragments detected by antibody 1565-1 (Epitomics Inc.) in the brains of ST101-treated (S) 3xTg-AD mice, relative to untreated (C) 3xTg mice-AD.

A further assay deals with acetylcholine (ACh). As to the kind of experiment: Nicotine-stimulated release of acetylcholine.
In assay [4] the test system is extracellular ACh and dopamine. In words: Extracellular ACh and dopamine concentrations in cerebral cortex and hippocampus. The class given is in vivo.
In assay [5] the test system is rodent models of learning and memory. As to conditions: cited from earlier work.
The test system of assay [6] is Senescence Accelerated Mouse 8 (SAMP8). The note with it: cited from earlier work.
[7] abbreviates: 5 mg/kg/day for 2 months, at both 24 and 72 hours after training.

In the case of `O=C1N=C2C=CC=CN2C12Cc1ccccc1C2` [ST101, spiro(imidazo[1,2-a]pyridin-2(3H)-one-3,2′-indan)], in the assay on N2a cells, the “Aβ1-40 in cell culture medium” value is “without major effects” and the “Aβ1-42 in cell culture medium” value is recorded as “significantly reduced”. Besides, in the assay with 3xTg-AD mice (setting [7]), the “crosses during retention testing” value is “increases in crosses” and the “latency during retention testing” value is listed as “reductions in latency”. Moreover, the “latency on successive days of the training” value with 3xTg-AD mice (5 mg/kg/day in drinking water for 2 months, vs controls) is “greater reductions in latency”. For the same compound, in assay [1] (vs untreated), the “C83 C-terminal APP fragment” value is reported as “substantial decrease”; the “C99 C-terminal APP fragment” value is recorded as “substantial decrease”; the “major APP degradation intermediate (~50 kDa)” value is recorded as “disappearance or significant reduction”; the “novel, longer C-terminal fragment of about 17 kDa” value is given as “appearance”. For the same compound, in assay [1] (some full-length species), the “full-length APP species (band shifts)” value is reported as “slightly lowered molecular weight”. Besides, in assay [2], the “major APP degradation intermediate (~50 kDa)” value was “disappearance or significant reduction” and the “novel, longer C-terminal fragment of about 17 kDa” value is “appearance”. Moreover, in [3], the “longer C-terminal fragment of about 17 kDa” value is “not observed”. Moreover, in assay [3] (vs untreated), the “APP C99 fragment” value is “disappearance or significant reduction”. For the same compound, the “nicotine-stimulated release of acetylcholine (ACh)” value in the assay on acetylcholine (ACh) was “potentiates”. Also, the “extracellular ACh concentrations” value in [4] (cerebral cortex) is “increases”. Further, in assay [4] (hippocampus), the “extracellular concentrations of ACh” value is listed as “increases” and the “extracellular concentrations of dopamine” value is “increases”. Also, the “memory deficits induced by chemical amnesic agents” value in [5] (methamphetamine, MK-801, scopolamine) is recorded as “attenuates”. The age-impaired memory result in assay [5] (rodent models) is on record as “significantly improves”. The “accumulation of Aβ-like deposits” value in assay [6] (brain tissue) is recorded as “decreased”. Moreover, in assay [6], the “learning and memory functions” value is reported as “improvement”.
